By pEC50 is commonly meant −log10 of the EC50, conventionally taken in molar units. Read a high pEC50 as a low EC50.

pEC50: −log10 of the molar value. Structures can show the parent of a compound that is named as a salt.

T1 sequence (Q06219 whole entry): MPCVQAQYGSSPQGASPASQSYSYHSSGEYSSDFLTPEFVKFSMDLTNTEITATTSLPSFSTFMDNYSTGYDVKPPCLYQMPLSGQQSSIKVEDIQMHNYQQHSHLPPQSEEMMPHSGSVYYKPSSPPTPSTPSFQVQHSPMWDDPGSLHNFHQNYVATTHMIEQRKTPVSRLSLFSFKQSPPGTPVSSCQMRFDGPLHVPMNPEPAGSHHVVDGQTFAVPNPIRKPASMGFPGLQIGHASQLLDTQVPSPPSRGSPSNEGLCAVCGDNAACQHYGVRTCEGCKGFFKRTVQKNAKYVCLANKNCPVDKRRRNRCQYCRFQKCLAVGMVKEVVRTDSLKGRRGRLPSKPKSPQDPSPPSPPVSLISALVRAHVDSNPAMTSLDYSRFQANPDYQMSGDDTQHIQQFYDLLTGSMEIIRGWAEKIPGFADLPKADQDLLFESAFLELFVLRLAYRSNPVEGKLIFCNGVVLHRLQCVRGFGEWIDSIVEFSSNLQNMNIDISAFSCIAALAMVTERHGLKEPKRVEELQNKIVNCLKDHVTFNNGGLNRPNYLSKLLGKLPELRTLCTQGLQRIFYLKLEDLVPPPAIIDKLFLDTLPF

The experiment has as its target T1, murine Nurr 1 receptor (Mus musculus, UniProt Q06219).
T1 construct: a cell line (N2A) endogenously expressing the murine Nurr 1 receptor; host or cells: Neuro-2A (N2A) mouse neuroblastoma cells stably transfected with 8NBRE-luciferase
Briefly: In vitro activity on N2A cells (NBRE-luciferase reporter gene). In kind it is cell-based. Particulars: N2A cell line endogenously expressing Nurr 1, stably transfected with 8NBRE-luciferase; products incubated 24 hours. How it is done:
Evaluation of the In Vitro Activity on N2A Cells
The activity of the compounds according to the invention was evaluated on a cell line (N2A) endogenously expressing the murine Nurr 1 receptor and stably transfected with the NOT binding response element (NBRE) coupled to the luciferase reporter gene. The EC50 values are between 0.01 and 1000 nM. The tests were performed according to the procedure described hereinbelow.
The cell line Neuro-2A is obtained from a standard commercial source (ATCC). The clone Neuro-2A was obtained from a spontaneous tumour originating from a strain of albino mice A by R. J Klebe et al. This line Neuro-2A is then stably transfected with 8NBRE-luciferase. The N2A-8NBRE cells are cultured to the point of confluence in 75 cm^2 culture flasks containing DMEM supplemented with 10% foetal calf serum, 4.5 g/L of glucose and 0.4 mg/ml of geneticin. After culturing for one week, the cells are recovered with 0.25% trypsin for 30 seconds and then resuspended in DMEM without phenol red, containing 4.5 g/L of glucose and 10% Hyclone defatted serum, and placed in white, transparent-based 96-well plates. The cells are deposited at a rate of 60 000 per well in 75 μL for 24 hours before adding the products. The products are applied in 25 μL and incubated for a further 24 hours. On the day of measurement, an equivalent volume (100 μL) of Steadylite is added to each well, and the wells are then left for 30 minutes to obtain complete lysis of the cells and maximum production of the signal. The plates are then measured in a microplate luminescence counter, after having been sealed with an adhesive film. The products are prepared in the form of a 10^−2 M stock solution, and then diluted in 100% of DMSO. Each concentration of product is prediluted in culture medium before incubation with the cells thus containing 0.625% final of DMSO.
`O=C(Nc1ccccc1)c1cn2cc(-c3ccccn3)ccc2n1` [Compound 3, N-Phenyl-6-(pyrid-2-yl)imidazo[1,2-a]pyridine-2-carboxamide]: the pEC50 is 9.05.
`O=C(Nc1ccccc1)c1cn2cc(C3=NCCN3)ccc2n1` [Compound 17, 6-(4,5-Dihydro-1H-imidazol-2-yl)-N-phenylimidazo[1,2-a]pyridine-2-carboxamide hydrochlorides (1:1) and (1:2)] showed a negative logarithm of the EC50 (pEC50) of 7.57.
The value for `O=C(Nc1cc(F)cc(F)c1)c1cn2cc(-c3ccoc3)ccc2n1` [Compound 24, N-(3,5-Difluorophenyl)-6-(furan-3-yl)imidazo[1,2-a]pyridine-2-carboxamide] was 9.05; that for `O=C(Nc1ccccc1)c1cn2cc(-c3cn[nH]c3)ccc2n1` [Compound 29, N-Phenyl-6-(1H-pyrazol-4-yl)imidazo[1,2-a]pyridine-2-carboxamide] was 8.96; that for `O=C(Nc1cccc(F)c1F)c1cn2cc(-c3ccccn3)ccc2n1` [Compound 45, N-(2,3-Difluorophenyl)-6-(pyrid-2-yl)imidazo[1,2-a]pyridine-2-carboxamide] was 8.92.
The value for `O=C(Nc1cccc(F)c1)c1cn2cc(-c3nc[nH]n3)ccc2n1` [Compound 53, N-(3-Fluorophenyl)-6-(1H-1,2,4-triazol-3-yl)imidazo[1,2-a]pyridine-2-carboxamide] was 9.40.

Source of the values: patent US8691990B2, “6-heterocyclic imidazo[1,2-α]pyridine-2-carboxamide derivatives, preparation and therapeutic use thereof” (Sanofi, priority 2008, dated 2014).
